Reference: patent EP1484330B1, “Triazole compouds suitable for treating disorders that respond to modulation of the dopamine D3 receptor” (Abbott GmbH & Co. KG, priority 2003, dated 2004)

Assays:
[1] = molecular target: T1, human dopamine D3 receptors (Homo sapiens, UniProt P35462); experiment: Receptor binding study, displacement of [125I]-iodosulpride from HEK-293 cell membranes; conditions: for Ki: 0.1 nM [125I]-iodosulpride, HEK-293 membranes, 25°C, 60 minutes; for Selectivity [Ki(D2)/Ki(D3)]: ratio Ki(D2)/Ki(D3)
T1 construct: expressed in transfected cells; membranes used
Method: (§1) The substance to be tested was either dissolved in methanol/Chremophor® (BASF-AG) or in dimethyl sulfoxide and then diluted with water to the desired concentration.
(§2) Each assay mixture was run in triplicate.
The incubation buffer contained 50 mM tris, 120 mM NaCl, 5 mM KCI, 2 mM CaCl2, 2 mM MgCl2 and 0.1% bovine serum albumin, 10 µM quinolone and 0.1% ascorbic acid (prepared fresh daily). The buffer was adjusted to pH 7.4 with HCl.
(§3) After having been incubated at 25°C for 60 minutes, the assay mixtures were filtered through a Wathman GF/B glass fiber filter under vacuum using a cell collecting device. The filters were transferred to scintillation viols using a filter transfer system. After 4 ml of Ultima Gold® (Packard) have been added, the samples were shaken for one hour and the radioactivity was then counted in a Beta-Counter (Packard, Tricarb 2000 or 2200CA). The cpm values were converted into dpm using a standard quench series and the program belonging to the instrument.
(§4) The inhibition curves were analyzed by means of iterative nonlinear regression analysis using the Statistical Analysis System (SAS) which is similar to the "LIGAND" program described by Munson and Rodbard.

[2] = molecular target: T2, human dopamine D2L receptors (long isoform) (Homo sapiens, UniProt P14416); experiment: Receptor binding study, displacement of [125I] iodospiperone from HEK-293 cell membranes; conditions: 0.01 nM [125I] iodospiperone, HEK-293 membranes, 25°C, 60 minutes, read-out: Ki D2
T2 construct: expressed in transfected cells; membranes used
Method: as §1, §2
The incubation buffer contained 50 mM tris, 120 mM NaCl, 5 mM KCl, 2 mM CaCl2, 2 mM MgCl2 and 0.1% bovine serum albumin. The buffer was adjusted to pH 7.4 with HCl.
as §3, §4

[3] = Determination of the concentration of compounds in plasma and brain following oral dosing; format: in vivo, Male Sprague-Dawley rats; conditions: rats, 10 mg/kg orally by gavage; samples at 0.5, 3 and 8 hours; value Cmax
Method: Male Sprague-Dawley rats were used in this study (2 to 4 per experiment). The animals were fasted overnight prior to dosing and throughout the duration of the study but were permitted water ad libitum. Each rat received a 10 mg/kg (5 mL/kg) dose orally by gavage. At 0.5, 3 and 8 hours after drug administration, three animals were put under deep anesthesia using isoflurane and euthanized by bleeding (cardiac puncture) under deep isoflurane anesthesia. EDTA blood samples and brain tissue will be collected from each rat. Upon collection, the samples were promptly placed in an ice bath, and within 2 hours after sample collection, the blood was centrifuged at about 4°C. The resulting brain and plasma samples were placed in clean glass tubes and stored in a freezer until analysis. The plasma samples were assayed for parent compound using appropriate liquid chromatography - mass spectrometry procedures. The results are given in table 2 along with results obtained using the two reference compounds A and B, and illustrate the high brain concentrations attainable with the compounds of the invention.

T1 sequence (P35462 whole entry): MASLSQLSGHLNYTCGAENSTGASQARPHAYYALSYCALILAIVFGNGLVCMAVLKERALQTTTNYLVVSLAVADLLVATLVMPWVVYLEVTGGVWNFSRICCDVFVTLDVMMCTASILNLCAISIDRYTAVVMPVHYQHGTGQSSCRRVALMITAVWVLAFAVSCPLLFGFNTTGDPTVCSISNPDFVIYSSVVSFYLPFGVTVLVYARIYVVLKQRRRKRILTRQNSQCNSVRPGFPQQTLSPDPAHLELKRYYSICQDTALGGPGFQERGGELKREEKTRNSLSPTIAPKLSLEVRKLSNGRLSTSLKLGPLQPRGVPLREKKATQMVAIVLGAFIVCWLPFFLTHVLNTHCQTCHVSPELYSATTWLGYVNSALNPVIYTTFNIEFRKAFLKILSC
T2 sequence (P14416 whole entry, canonical isoform): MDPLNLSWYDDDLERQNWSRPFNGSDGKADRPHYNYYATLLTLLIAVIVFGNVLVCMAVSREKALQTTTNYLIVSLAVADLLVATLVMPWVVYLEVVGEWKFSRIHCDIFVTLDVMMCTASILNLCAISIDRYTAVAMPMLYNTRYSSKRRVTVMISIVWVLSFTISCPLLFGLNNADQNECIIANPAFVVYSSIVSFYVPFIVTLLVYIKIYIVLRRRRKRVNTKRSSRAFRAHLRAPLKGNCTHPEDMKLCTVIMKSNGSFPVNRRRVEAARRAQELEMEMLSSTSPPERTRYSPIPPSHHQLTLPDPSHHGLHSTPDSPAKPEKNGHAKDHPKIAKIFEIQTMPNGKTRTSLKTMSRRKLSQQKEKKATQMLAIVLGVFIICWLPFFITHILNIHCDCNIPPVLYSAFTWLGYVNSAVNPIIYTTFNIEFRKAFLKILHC

Row | SMILES | Ki [1] [µM] | Selectivity [Ki(D2)/Ki(D3)] [1] | Ki [2] [µM] | Brain level [3] [ng/g]
1 | Cn1c(N)nnc1SCCCN1CCN(c2cc(C(C)(C)C)nc(C(C)(C)C)n2)CC1 [A*, reference compound] |  |  |  | 387
2 | Cl.Cn1cnnc1SCCCN1CCN(c2cc(C(F)F)nc(C(C)(C)C)n2)CC1 [Example 7, 2-tert-Butyl-4-{4-[3-(4-methyl-4H-[1,2,4]triazol-3-ylsulfanyl)-propyl]-piperazin-1-yl}-6-difluoromethyl-pyrimidine hydrochloride] | 0.0029 | 146 | 0.418 | 1430
3 | Cl.Cn1cnnc1SCCCN1CCN(c2cc(C(F)(F)F)nc(C(C)(C)C)n2)CC1 [Example 6, 2-tert-Butyl-4-{4-[3-(4-methyl-4H-[1,2,4]triazol-3-ylsulfanyl)-propyl]-piperazin-1-yl}-6-trifluoromethyl-pyrimidine hydrochloride] | 0.0035 | 134 | 0.469 | 2384
4 | Cc1nnc(SCCCN2CCN(c3cc(C(F)(F)F)nc(C(C)(C)C)n3)CC2)n1C.Cl [Example 5, 2-tert-Butyl-4-{4-[3-(4-methyl-5-methyl-4H-[1,2,4]triazol-3-ylsulfanyl)-propyl]-piperazin-1-yl}-6-trifluoromethyl-pyrimidine hydrochloride] | 0.0037 | 84 | 0.311 | 904
5 | CCCc1cc(N2CCN(CCCSc3nncn3C)CC2)nc(C(C)(C)C)n1.O=C(O)/C=C/C(=O)O [Example 3, 2-tert-Butyl-4-{4-[3-(4-methyl-4H-[1,2,4]triazol-3-ylsulfanyl)-propyl]-piperazin-1-yl}-6-propyl-pyrimidine fumarate] | 0.0033 | 125 | 0.412 | 1000
6 | Cn1c(N)nnc1SCCCN1CCN(c2cc(C(F)(F)F)nc(C(C)(C)C)n2)CC1 [B*, reference compound] |  |  |  | 143

Results, then the compound that gave them:

Row | Ki [1] [µM] | Selectivity [Ki(D2)/Ki(D3)] [1] | Ki [2] [µM] | Brain level [3] [ng/g] | SMILES
7 | 0.0018 | 224 | 0.401 |  | Cc1nnc(SCCCN2CCN(c3cc(C(F)F)nc(C(C)(C)C)n3)CC2)n1C.Cl [Example 8, 2-tert-Butyl-4-{4-[3-(4-methyl-5-methyl-4H-[1,2,4]triazol-3-ylsulfanyl)-propyl]-piperazin-1-yl}-6-difluoromethyl-pyrimidine hydrochloride]
8 | 0.0026 | 83 | 0.216 | 483 | CCCc1cc(N2CCN(CCCSc3nnc(C)n3C)CC2)nc(C(C)(C)C)n1.Cl [Example 4, 2-tert-Butyl-4-{4-[3-(4-methyl-5-methyl-4H-[1,2,4]triazol-3-ylsulfanyl)-propyl]-piperazin-1-yl}-6-propyl-pyrimidine hydrochloride]
9 | 0.0011 | 160 | 0.176 | 559 | Cc1nnc(SCCCN2CCN(c3cc(C(C)(C)C)nc(C(C)(C)C)n3)CC2)n1C.Cl [Example 1, 2-tert-Butyl-4-{4-[3-(4-methyl-5-methyl-4H-[1,2,4]triazol-3-ylsulfanyl)-propyl]-piperazin-1-yl}-6-tert-butyl-pyrimidine hydrochloride]
10 | 0.0017 | 75 | 0.127 | 1835 | Cl.Cn1cnnc1SCCCN1CCN(c2cc(C(C)(C)C)nc(C(C)(C)C)n2)CC1 [Example 2, 2-tert-Butyl-4-{4-[3-(4-methyl-4H-[1,2,4]triazol-3-ylsulfanyl)-propyl]-piperazin-1-yl}-6-tert-butyl-pyrimidine hydrochloride]
